In DBAASP one finds MIC data, which are given here for four compounds.

Assay in all cases: ≥ marks a high value that may be exact or a test limit, other limits are often not marked, values filed in µg/mL are converted to µM
For assay [1], the system named is Acinetobacter baumannii Ab5753.
Assay [2] has as its system Candida albicans ATCC 90028.
Assay [3] relates to Escherichia coli ATCC 25922.
For assay [4], the system named is Escherichia coli Ec513.
Assay [5] deals with Pseudomonas aeruginosa Pa1409.
For assay [6], the system named is Staphylococcus aureus NCTC 8325.
The subject of assay [7] is Staphylococcus aureus Sa1390.
In assay [8] the test system is Bacillus subtilis 168.
Assay [9] concerns Candida albicans ATCC 10231.
The test system of assay [10] is Candida glabrata ATCC 2001.
The subject of assay [11] is Candida tropicalis ATCC 13803.
Assay [12] has as its system Klebsiella pneumoniae ATCC 13883.
Assay [13] concerns Pseudomonas aeruginosa PAO1.
Assay [14] concerns Staphylococcus aureus MU50.
The subject of assay [15] is Staphylococcus aureus Newman.
In assay [16] the test system is Staphylococcus aureus UAMS-1.
Assay [17] relates to Staphylococcus aureus USA 200.
Assay [18] concerns Staphylococcus aureus USA 300.
Assay [19] has as its system Staphylococcus aureus USA 400.
For assay [20], the system named is Staphylococcus epidermidis 1457.
For assay [21], the system named is Acinetobacter baumannii MTCC 9829.
Assay [22] relates to Alcaligenes faecalis MTCC 1937.
Assay [23] relates to Alkalihalobacillus alcalophilus MTCC 860.
Assay [24] has as its system Bordetella bronchiseptica MTCC 6837.
The test system of assay [25] is Citrobacter freundii MTCC 1658.
The test system of assay [26] is Citrobacter koseri MTCC 1657.
The test system of assay [27] is Corynebacterium glutamicum MTCC 2679.
In assay [28] the test system is Enterococcus faecalis MTCC 439.
Assay [29] concerns Escherichia coli K12 MG1655.
Assay [30] relates to Haemophilus influenzae MTCC 621.
The subject of assay [31] is Klebsiella aerogenes MTCC 111.
Assay [32] concerns Klebsiella oxytoca MTCC 2275.
Assay [33] concerns Klebsiella pneumoniae MTCC 7407.
Assay [34] concerns Pluralibacter gergoviae MTCC 3826.
In assay [35] the test system is Proteus mirabilis MTCC 3158.
In assay [36] the test system is Proteus vulgaris MTCC 1771.
In assay [37] the test system is Pseudomonas aeruginosa MTCC 3542.
The subject of assay [38] is Salmonella enterica MTCC 9844.
The test system of assay [39] is Salmonella enterica subsp. enterica serovar Typhimurium ATCC 14028.
Assay [40] deals with Shigella boydii MTCC 11947.
Assay [41] has as its system Shigella flexneri MTCC 1457.
Assay [42] has as its system Staphylococcus aureus MTCC 3160.
The subject of assay [43] is Staphylococcus haemolyticus MTCC 3383.
Assay [44] relates to Stenotrophomonas maltophilia MTCC 1890.
The test system of assay [45] is Vibrio cholerae MTCC 3904.
In assay [46] the test system is Escherichia coli J2210.
Assay [47] relates to Escherichia coli JJ2487.
Assay [48] has as its system Escherichia coli JW0013.
The test system of assay [49] is Escherichia coli MC1061.
Assay [50] relates to Escherichia coli O157:H7.
For assay [51], the system named is Salmonella enterica subsp. enterica serovar Enteritidis MH91989.
The subject of assay [52] is Salmonella typhimurium SL1344.

Molecules are shown by their SMILES. In brackets after ≈: the same amount, converted by molar mass. A value given as a limit tells only on which side of the number the result lay.

In the case of `CC[C@H](C)[C@H](NC(=O)[C@H](CC(C)C)NC(=O)[C@H](C)NC(=O)[C@@H]1CCCN1C(=O)[C@H](Cc1ccccc1)NC(=O)[C@H](C)NC(=O)[C@H](CCCCN)NC(=O)[C@H](CCSC)NC(=O)[C@H](CC(C)C)NC(=O)CNC(=O)CNC(=O)[C@H](CC(C)C)NC(=O)[C@@H](N)Cc1ccccc1)C(=O)N[C@H]1CSSC[C@@H](C(=O)O)NC(=O)[C@H](CCCCN)NC(=O)[C@H](CCCCN)NC(=O)[C@H]([C@@H](C)O)NC(=O)[C@H](C(C)C)NC(=O)[C@H](C)NC1=O` [FLGGLMKAFPALICAVTKKC], the MIC in [1] was ≥ 60.6 µM; in assay [2], 14 µM (≈ 29.5 µg/mL); in assay [3], 4 µM (≈ 8.44 µg/mL); in [4], ≥ 60.6 µM; in assay [5], ≥ 60.6 µM; in assay [6], 17 µM (≈ 35.9 µg/mL). This compound also had an MIC in assay [7] of 30.3 µM (≈ 63.9 µg/mL).

As for `CC[C@H](C)[C@H](NC(=O)[C@H](C)NC(=O)[C@H](CO)NC(=O)[C@H](CC(C)C)NC(=O)[C@@H](N)Cc1ccccc1)C(=O)N[C@H](C(=O)N[C@@H](CO)C(=O)N[C@H](C(=O)N[C@@H](CC(C)C)C(=O)NCC(=O)N[C@@H](CCCCN)C(=O)N[C@@H](Cc1ccccc1)C(=O)N[C@@H](Cc1ccccc1)C(N)=O)[C@@H](C)CC)[C@@H](C)O` [FLSAITSILGKFF], the MIC was 12.5 µM (≈ 18 µg/mL) in assay [8]; 25 µM (≈ 36.1 µg/mL) in assay [9]; 25 µM (≈ 36.1 µg/mL) in [10]; 6.2 µM (≈ 8.95 µg/mL) in [11]; > 50 µM in assay [3]; ≥ 50 µM in assay [12]. Further, the MIC is > 50 µM in [13]; 12.5 µM (≈ 18 µg/mL) in assay [14]; 12.5 µM (≈ 18 µg/mL) in assay [15]; 25 µM (≈ 36.1 µg/mL) in assay [16]; 6.25 µM (≈ 9.02 µg/mL) in assay [17]; 6.3 µM (≈ 9.09 µg/mL) in assay [18]. In addition, the MIC was determined as 6.25 µM (≈ 9.02 µg/mL) in assay [19] and 6.3 µM (≈ 9.09 µg/mL) in [20].

Turning to `CC(C)C[C@H](NC(=O)[C@H](CCCCN)NC(=O)[C@@H]1CCCN1C(=O)[C@H](CC(C)C)NC(=O)[C@H](CO)NC(=O)[C@H](CCCN=C(N)N)NC(=O)[C@H](C)NC(=O)[C@H](CCCCN)NC(=O)[C@H](CCCCN)NC(=O)[C@H](Cc1ccccc1)NC(=O)[C@H](Cc1ccccc1)NC(=O)[C@H](CCCCN)NC(=O)[C@H](CCCCN)NC(=O)[C@H](Cc1c[nH]c2ccccc12)NC(=O)[C@@H](N)CO)C(=O)N[C@@H](Cc1ccccc1)C(=O)O` [SWKKFFKKARSLPKLF], the MIC in assay [21] worked out at 1.99 µM (≈ 4 µg/mL); in assay [22], 31.8 µM (≈ 64 µg/mL); in assay [23], 15.9 µM (≈ 32 µg/mL); in [24], 0.497 µM (≈ 1 µg/mL); in assay [25], 15.9 µM (≈ 32 µg/mL); in assay [26], 3.98 µM (≈ 8 µg/mL). Further, the MIC in assay [27] was 0.994 µM (≈ 2 µg/mL); in [28] it was ≥ 63.6 µM; in [29], 1.99 µM (≈ 4 µg/mL); in assay [30], 0.994 µM (≈ 2 µg/mL); in [31] it was 7.95 µM (≈ 16 µg/mL); in assay [32], 7.95 µM (≈ 16 µg/mL). Further, the MIC in [33] is 15.9 µM (≈ 32 µg/mL); in assay [34] it was 31.8 µM (≈ 64 µg/mL); in assay [35], ≥ 63.6 µM; in assay [36], 7.95 µM (≈ 16 µg/mL); in assay [37], 15.9 µM (≈ 32 µg/mL); in assay [38] it was 3.98 µM (≈ 8 µg/mL). Further, the MIC in [39] is 3.98 µM (≈ 8 µg/mL); in [40], 0.994 µM (≈ 2 µg/mL); in assay [41], 1.99 µM (≈ 4 µg/mL); in [42], ≥ 63.6 µM; in [43], 3.98 µM (≈ 8 µg/mL); in assay [44], 7.95 µM (≈ 16 µg/mL). Further, the MIC in [45] was determined as 31.8 µM (≈ 64 µg/mL).

For the compound `CC[C@H](C)[C@H](NC(=O)[C@H](CCCN=C(N)N)NC(=O)[C@H](CCCN=C(N)N)NC(=O)[C@@H]1CCCN1C(=O)[C@@H]1CCCN1C(=O)[C@H](CCCN=C(N)N)NC(=O)[C@@H]1CCCN1C(=O)[C@H](CCCN=C(N)N)NC(=O)[C@@H]1CCCN1C(=O)[C@H](CCCCN)NC(=O)[C@H](Cc1ccc(O)cc1)NC(=O)[C@@H]1CCCN1C(=O)[C@@H]1CCCN1C(=O)[C@H](CCCCN)NC(=O)[C@H](CC(=O)O)NC(=O)[C@@H](N)C(C)C)C(=O)N[C@@H](Cc1ccc(O)cc1)C(=O)N[C@@H](CC(N)=O)C(=O)N[C@@H](CCCN=C(N)N)C(N)=O` [VDKPPYKPRPRPPRRIYNR], the MIC turned out to be 0.125 µM (≈ 0.3 µg/mL) in [46]; 0.328 µM (≈ 0.79 µg/mL) in [47]; 0.249 µM (≈ 0.6 µg/mL) in [48]; 0.0623 µM (≈ 0.15 µg/mL) in assay [49]; 0.998 µM (≈ 2.4 µg/mL) in assay [50]; 0.249 µM (≈ 0.6 µg/mL) in [51]. In assay [52], this compound had an MIC of 0.249 µM (≈ 0.6 µg/mL).
